Assay results taken from a melting point compilation (Tetko et al.; mined from patent text by program, amines drawn as free bases though some values may be those of a salt).
Residues, ends and D or L forms follow the SMILES beside them. *: point of attachment. NHPhenethyl = c1ccc(CCN*)cc1; Cbz = O=C(OCc1ccccc1)*

melting point	Compound
228 to 230 °C	COc1ccc(-c2oc3ccc(F)cc3c(=O)c2OCCOc2cccc(C(C)=C3SC(=O)NC3=O)c2)cc1OC
209 to 210 °C	O=[N+]([O-])c1ccc2c(c1)C(n1ccccc1=S)=CC(CF)(CF)O2
100 to 102 °C	O=c1ccc2ccc(OCCCCl)cc2o1
72 to 74 °C	CCOC(=O)C(=O)N1CCC(Cc2ccc(F)cc2)CC1
113 to 114 °C	COc1cc(C(O)c2ccc3ccccc3c2)ccc1OCc1ccccc1 (stereo unspecified)
119 to 121 °C	CN(C)C(=O)C(=O)C1=CC2(CCCC2)c2ccccc21
115 to 116 °C	ONC(=S)CCc1ccc(F)cc1
184 to 185 °C	O=c1cc2c(nn1-c1ccc(Cl)cc1)-c1cc(Br)sc1S(=O)CC2 (stereo unspecified)
192 °C	Cc1nc(N)c2nc(C)n(CCCN)c2c1C
255 °C	N#Cc1cnc2sc(CCC(=O)O)cc2c1Nc1ccc2[nH]ccc2c1
236 to 238 °C	CCc1cc(-c2nnc3c4ccccc4c(OCc4ncn(C)n4)nn23)no1
171 to 172 °C	CCOP(=O)(/C=C/c1cn(-c2ccccc2)nc1OCc1ccc(OCc2nc(-c3ccc(OC)c(C(=O)O)c3)oc2C)c(OC)c1)OCC
111 to 112 °C	CC(C1CCC(Oc2ccc(F)cc2)C1)N(O)C(N)=O (stereo unspecified)
145 to 147 °C	NC1=NS(=O)N=C1NCCCOc1cccc(CN2CCCCC2)n1 (stereo unspecified)
260 °C	CN1CCCc2c1cc[nH]c2=O
248 to 251 °C	O=C1CCc2cc(NCC(=O)N3CCC(Oc4ccc(Cl)cc4)CC3)ccc2N1
184 °C	CC1CCNC(=C[N+](=O)[O-])N1c1ccc(Cl)nc1 (stereo unspecified)
135 °C	O=C(NCc1ccccn1)Nc1cc(N2C(=O)C3(CCCC3)c3ccccc32)ccn1
55 to 57 °C	Cc1ccc2sc(C(C)(C)C)nc2c1
57 °C	CNc1cc(Cl)c(OC)c([N+](=O)[O-])c1OC
51.5 to 52 °C	S=C(Cc1cccs1)N1CCCCC1
84 to 85 °C	CN1C(C)(C)CC(CO)CC1(C)C
38 to 40 °C	CON=CC1CCCN(OC(=O)c2ccccc2)C1 (stereo unspecified)
210 °C	CC(=O)OCC(=O)C1(OC(=O)c2ccccc2)CCC2C3CC(C)C4=CC(=O)CCC4(C)C3C(O)CC21C (stereo unspecified)
175 to 177 °C	CC(C(=O)O)c1ccc2cc(OCC=Cc3ccccc3)ccc2c1 (stereo unspecified)

melting point	Compound
102 to 104 °C	CCn1c(CO)nc(C(C)C)c1Sc1cc(F)cc(F)c1
112 to 119 °C	Fc1cc(F)c(-c2c(Cl)nc(Cl)n2-c2ccc(Cl)cc2)c(F)c1
114 to 115 °C	CN(C(=O)OC(C)(C)C)c1cc(Oc2cccc(-c3ccccc3)c2)ccc1N
118 to 120 °C	CCCCN(CCCC)C(=O)N1CCc2ccc(S(=O)(=O)NC(=O)NC3CCCCC3)cc2CC1
121 to 123 °C	CN(C)C=Nc1ccncc1O
242 to 246 °C	O=C(O)CN1C(=O)C(=Cc2csc(Nc3ccccc3)n2)SC1=S
64 to 65 °C	CCOC(=O)C(C)(C)CCCCOc1ccc(NC(=O)CCCCCn2ccnc2)cc1
78 °C	O=C(c1ccc(Cl)cc1)C1(n2cncn2)CC1
87 to 90 °C	CCCCCCCCCCCCCCCCCCNC(=O)OCC(CNS(=O)(=O)CCCCl)NC(=O)NC (stereo unspecified)
159 to 162 °C	CCC(C)=NNC(=O)c1cccc2nnsc12
58.5 to 60 °C	C=C(C=O)c1ccc(C)cc1[N+](=O)[O-]
104 to 105 °C	CCCOc1ccccc1-c1nc(C=O)c[nH]1
208 °C	N#Cc1c(N)nc2ccccc2c1NCc1cccs1
99 °C	CC(C)(C)CNS(=O)(=O)c1cccc([N+](=O)[O-])c1
273 to 275 °C	CCc1nc(C)cn1-c1cc2c(cc1Cl)[nH]c(=O)c1n[nH]c(=O)n12
93.5 to 95.5 °C	Cc1c(OCc2ccc([Si](C)(C)C)cc2)cnn(C(C)(C)C)c1=O
148 to 150 °C	COc1ccc2c(c1)c(Cc1cc(=O)n(-c3ccccc3)[nH]1)c(C)n2C(=O)c1ccc(Cl)cc1
145 to 148 °C	CCSC1(Sc2ccccc2)CCC2C3CCC4=CC(=O)C=CC4(C)C3(F)C(OC(C)=O)CC21C (stereo unspecified)
137 to 138 °C	CC(=O)Oc1cc(OCC(=O)c2ccc3c(c2)C(C)(C)CCC3(C)C)ccc1C(=O)OCc1ccccc1
125 to 128 °C	CS(=O)(=O)Nc1cc(C(=O)C=O)ccc1OCc1ccccc1
195 °C	COC(=O)C1Cc2c([nH]c3ccccc23)C(c2ccc(O)c(OC)c2)N1 (stereo unspecified)
180 to 181 °C	Nc1c(F)c(N2CCC3(CC3N)C2)c(F)c2c1c(=O)c(C(=O)O)cn2[C@@H]1C[C@@H]1F (stereo partly specified)
204 to 205 °C	CCc1c(C)[nH]c(=O)c(N)c1Cc1cc(C)cc(C)c1
149 to 151 °C	CN1CCN(C2=Nc3ccccc3N3CCc4cccc2c43)CC1
114 to 116 °C	O=C1N(N2CCCCC2)c2ccccc2C1(Cc1ccccc1)c1ccccc1 (stereo unspecified)

melting point	Compound
242 to 244 °C	O=S1(=O)NC(Cc2ccccc2)Nc2ccc(S(=O)(=O)N3CCCCC3)cc21 (stereo unspecified)
147 to 149 °C	COc1cc2c(=O)c(C#N)c[nH]c2cc1F
150 to 152 °C	COc1ccccc1N1CCN(CCOc2ccc(-c3cn4cccnc4n3)cc2)CC1
150 to 152 °C	O=C1NC(=O)C(CC#Cc2cc(C(F)(F)F)cc(C(F)(F)F)c2)(S(=O)(=O)c2ccccn2)S1 (stereo unspecified)
217 to 219 °C	Cc1cc(Nc2c(C#N)cnc3cc(-c4csc(CN5CCOCC5)c4)ccc23)ccc1OCc1ccccn1
138 to 140 °C	CC(C)Oc1ccc(/C=C/C(=O)O)c(Oc2ncc(C(F)(F)F)cc2Cl)c1
167 to 180 °C	CSCC[C@H](NC(=O)N[C@@H](CCSC)C(=O)O)C(=O)O
189 °C	CN1CCC(N(CCCC2CCCO2)S(=O)(=O)c2ccc(Nc3nccc(Nc4ccc(F)cc4)n3)cc2)CC1 (stereo unspecified)
139 to 140 °C	Cc1oc(-c2ccco2)nc1COc1ccc(CC(=O)O)cc1
238 °C	O=C(O)c1cnn2c(C(F)(F)F)cc(-c3ccc(Cl)cc3)nc12
48 to 50 °C	C=CCOC(=O)c1ccc(N)cc1
129 to 131 °C	NC(=O)c1cccc(OCc2cccc(Br)c2)c1
264 to 268 °C	O=C(Nc1ccc(Cl)cc1)Nc1ccc2[nH]c(C(F)(F)F)nc2c1
102 to 103 °C	ClCc1coc(-c2cc3c(s2)CCCC3)n1
220 to 222 °C	Nc1c(N=O)c(=O)n(CCC2=CCCCC2)c(=O)n1CCC1=CCCCC1
116 to 120 °C	COc1cccc(C(O)CN(C)Cc2cc3c(=O)c(C(=O)NCc4ccc(Cl)cc4)cn(C)c3o2)c1 (stereo unspecified)
130 to 131 °C	CCCOc1ccccc1-c1nc2n(C(C)(C)C)[nH]cc-2c(=O)n1
95 to 96 °C	CCOc1ccc(C=O)c(Oc2ccc(Cl)cc2Cl)n1
65 to 68 °C	CON=C(C)Cc1sc2ccc(Cl)cc2c1Cl
240 to 242 °C	O=C(O)c1cc2c(s1)-c1cc(F)ccc1CC2
151 to 154 °C	Cc1cc(-c2ccc(S(C)(=O)=O)cc2)n(-c2ccc(F)cc2)c1Cl
74 to 79 °C	COc1ccc(-n2nnnc2C(F)(F)F)c(OC)c1CO
92 °C	O=C(c1ccc(-c2ccc(CBr)cc2)cc1)c1ccc(Cl)cc1Cl
146 to 149 °C	CC(C)CCc1nc2ccccn2c(=O)c1-c1ccc(Cl)cc1
269 to 273 °C	O=C(O)c1cn(-c2cnsn2)c2nc(N3CCCC3)c(F)cc2c1=O

melting point	Compound
197 to 198 °C	Cc1nc2ncnn2c2c1CCN2C1CCCCCC1
> 250 °C	Nc1ccn2c(=O)c(C(=O)O)ccc2c1
225 to 229 °C	NC(=O)CC(NC(=O)C(CO)NC(=O)CNC(=O)CNC(=O)OCc1ccccc1)C(=O)NC(Cc1ccccc1)C(=O)NCCc1ccccc1 (stereo unspecified) (Cbz-GGSNF-NHPhenethyl; configuration not given here)
104 to 106 °C	CCCc1c(OCC2Cc3c(ccc(C(C)=O)c3O)O2)ccc(C(C)=O)c1O (stereo unspecified)
188 to 191 °C	COc1ccc(OC)c2c1C=CNC(=O)C2
112 to 114 °C	Cc1cc(C2(c3cccc(-c4cncnc4)c3)N=C(N)N(C)C2=O)ccc1O[C@H](C)c1ccccc1 (stereo partly specified)
218 to 219 °C	N#Cc1c[nH]cc1-c1ccc(F)c(Cl)c1F
158 °C	O=c1nc(-c2cccs2)sc2ccccc12
223 to 225 °C	CN(C)c1ccc(-c2cccc3c2C2(COc4cc5c(cc42)CCO5)C(=O)N3Cc2ccc(C(F)(F)F)o2)cn1 (stereo unspecified)
167 to 169 °C	CC(C)(C)c1cc(NC(=S)NCc2ccc(N)cc2)cc(C(C)(C)C)c1O
182 °C	Cn1c(CCN2CCC(c3ccccc3)CC2)nc2ccc3ccccc3c21
201 to 204 °C	CS(=O)(=O)Nc1ccc([N+](=O)[O-])cc1N
178 °C	CCN(CC)C(=CC(=O)OC)n1c(=O)n2nc(C(=O)OC)c(N(CC)CC)c2c2ccccc21
172 to 173 °C	CC(C(O)c1ccc(OC(=O)c2ccc(CN3CCOCC3)cc2)cc1)N1CCC(O)(c2ccccc2)CC1 (stereo unspecified)
104 to 106 °C	O=C(Nc1cccnc1)N1N=CCC1c1ccccc1 (stereo unspecified)
172 to 174 °C	CNC(=O)c1ccccc1Nc1nc(Nc2ccc3c(c2)N(C)CCN(CCOC)C3)ncc1Cl
141 to 142 °C	Cc1c(-c2ccccc2)oc2c(OCCCl)cccc2c1=O
> 300 °C	CCCCNCCCNCCCCCCCCNCCCNCCCC
116 to 118 °C	CCCCCS(=O)(=O)NC(=O)/C=C/c1ccc(OCCCOC)cc1Oc1ncc(C(F)(F)F)cc1Cl
80 to 81 °C	OC1CCc2c1cccc2-n1cccc1 (stereo unspecified)
105 to 108 °C	O=S(=O)(CC(F)(F)F)Nc1ccc(Oc2ccc(F)cc2F)cc1
> 350 °C	O=C(CCCl)Nc1ccc2[nH]c3ccc(NC(=O)CCCl)cc3c(=O)c2c1
111 to 112 °C	COCc1cccc(-c2coc3ccc(-c4nnc(C)o4)cc23)c1
135 to 137 °C	CCNc1cc(-c2c[nH]cn2)ccn1

Compound	melting point
C[C@H](Cc1ccc2oc(C(=O)O)cc2c1)NC[C@H](O)c1csc(C(F)(F)F)n1	168 to 171 °C
N#Cc1nn(-c2c(Cl)cc(C(F)(F)F)cc2Cl)cc1-c1ccoc1Br	111 °C
